Source: PMC5649189, “Bioactivity Potential of Prunus spinosa L. Flower Extracts: Phytochemical Profiling, Cellular Safety, Pro-inflammatory Enzymes Inhibition and Protective Effects Against Oxidative Stress In Vitro” (Frontiers in Pharmacology, 2017)

Biological target: T1, lipoxygenase from soybean (LOX)
T1 construct: gene LOX1.1; such preparations are usually mainly lipoxygenase-1
Test: lipoxygenase inhibition assay, 96-well plate reader
Type: biochemical, Glycine max
Details: substrate linoleic acid; positive control; μg of standard per mL of the enzyme solution
Source text: lipoxygenase inhibition assay, 96-well plate reader on lipoxygenase from soybean (LOX)

Structure (SMILES)	LOX / IC50 (μg/mL)^a [µg/mL]
O=C(/C=C/c1ccc(O)c(O)c1)O[C@@H]1C[C@](O)(C(=O)O)C[C@@H](O)[C@H]1O [CHA, 5-O-Caffeoylquinic acid]	166.83 ± 7.15
COc1ccc2c(c1)c(CC(=O)O)c(C)n2C(=O)c1ccc(Cl)cc1 [IND, indomethacin]	92.60 ± 3.71
O=c1c(O)c(-c2ccc(O)c(O)c2)oc2cc(O)cc(O)c12 [QU, quercetin]	89.23 ± 2.13
C[C@@H]1O[C@@H](OC[C@H]2O[C@@H](Oc3c(-c4ccc(O)c(O)c4)oc4cc(O)cc(O)c4c3=O)[C@H](O)[C@@H](O)[C@@H]2O)[C@H](O)[C@H](O)[C@H]1O [RT, Quercetin 3-O-(6′′-O-α-L-rhamnopyranosyl)-β-D-glucopyranoside]	162.70 ± 3.70
